Results taken from publication PMC11125126, “Synthesis, Characterisation, and In Vitro Evaluation of Biocompatibility, Antibacterial and Antitumor Activity of Imidazolium Ionic Liquids” (Pharmaceutics, 2024).
Like-named read-outs stand apart in the source and are kept apart here.

Assays:
Escherichia coli = experiment: MIC/MBC by broth dilution, pure ILs; format: cell-based; details: 24 h
Source text: (§1) Within the Di3A (Dipartimento di Agricoltura, Alimentazione e Ambiente, University of Catania, Italy) microbial collection, two Gram-negative strains (Escherichia coli and Pseudomonas fluorescens) and one Gram-positive strain (Listeria monocytogenes) were studied in order to define the potential efficacy of ionic liquids in relation to the different structure of the bacterial cell wall.
(§2) For the pure ILs, the minimal inhibitory concentration (MIC) and minimal bactericidal concentration (MBC) were determined in Nutrient Broth (NB, Oxoid, Basingstoke, UK) medium by broth dilution method, according to the Clinical and Laboratory Standards Institute (CLSI).
(§3) All the bacterial strains were individually grown for 24 h at 35 or 27 °C for P. fluorescens, with shaking. After the incubation period, the cells were collected by centrifugation and re-suspended in sterile NB to obtain a stock culture of 10^9 CFU/mL.
(§4) Tubes containing 5 mL of NB with decreasing concentrations of ILs (1000, 500, 250, 125, 50, 25, 12.5, 5 and 0 µg/mL) were inoculated with each bacterial stock culture at a final concentration of 10^6 CFU/mL.
(§5) Tubes were incubated at 35 or 27 °C in an orbital shaker and evaluated for the viable count of E. coli, P. fluorescens, and L. monocytogenes after 24 h by spread-plating 100 µL of each suspension on Nutrient Agar (NA, Oxoid, Basingstoke, UK) incubated for 24–48 h at 35 or 27 °C.
(§6) In this study, MIC and MBC are expressed in both µg/mL and µM to make the comparison with the literature data easy. Each experiment was performed in triplicate.

HDF cells = experiment: Direct cytotoxicity test of IL powders, Alamar blue assay; format: cell-based, human; details: 24 h of incubation
Description: (§7) Cytotoxicity studies on IL powders were carried out using human dermal fibroblast (HDF) cells (Sigma-Aldrich) and a human breast cancer cell line (MCF7). In addition, ILs loaded in PVC polymer substrates were tested for their cytocompatibility and adhesion properties on the HDF. HDF cells were cultured in 75 cm^2 cell culture flask in Dulbecco’s Modified Eagle’s Medium (DMEM) supplemented with 20% Foetal Bovine Serum (FBS), 1% non-essential amino acid (NEAA), antibiotic solution (streptomycin 100 µg/mL and penicillin 100 U/mL, Sigma Aldrich) and 2 mM L-glutamine. MCF7 cells were grown in DMEM with 10% FBS and the same antibiotics as mentioned above. The cells were maintained in a culture at 37 °C, with 5% CO2 and 95% humidity to achieve a confluent layer. Control cells were cultured in a complete medium without any compounds in tissue culture plates. Before biological testing, the samples were sterilised using a UV light for 2 h.
(§8) A direct cytotoxicity test was used to assess the in vitro cytotoxicity of IL powders. IL powders with different alkyl chains were dissolved in DMEM media to obtain solutions at various concentrations (0.5–1–5 and 10 µg/mL) to determine the best formulation.
(§9) After 24 h of incubation of IL solutions (200 µL) with seeded cells under specific environmental conditions (T = 37 °C, HR = 95%, CO2 = 5%), cell viability was tested using the Alamar blue assay (AbD Serotec, Milan, Italy) following the manufacturer’s instructions.
(§10) In summary, each well received a 200 µL aliquot of Alamar Blue^TM diluted 1:10 in phenol red-free medium and was incubated for 4 h at 37 °C, 5% CO2. Following this, 100 µL of the solution was transferred to a 96-well plate for colorimetric analysis. Wells with no cells were included to account for any background interference from the redox indicator. Optical density was immediately measured using a spectrophotometer (Victor X3, Perkin Elmer, Waltham, MA, USA) at 560 and 595 nm wavelengths. The results were presented as a percentage of cell viability compared to that of the control (cells grown on tissue culture plates).
(§11) Here, the antitumor activity and cytotoxicity of the synthetised imidazolium-based ionic liquids have been determined for breast cancer cells (MCF-7) and healthy human fibroblast (HDF) cells. […] Table 5 reports the IC50 values in µg/mL and µM to make their comparison with the literature data easy.

MCF7 cancer cells = experiment: as above; format: cell-based, human; details: 24 h of incubation
Description: as §7, §8, §9, §10, §11

[1] = Thermogravimetric analysis (TGA), thermal stability; format: physicochemical; details: neat ILs; single-step degradation; 10 °C/min, nitrogen
Description: Thermal stability and kinetic parameters of the synthesised ILs were investigated using the TA instruments Q500 thermogravimetric analyser (Milan, Italy). A certain amount of sample (4–5 mg) was placed in a platinum pan and heated at 10 °C min^−1 from 40 to 600 °C under a flow of nitrogen (60 mL/min).
Thermogravimetric analyses were performed to evaluate the thermal stability of ILs and PVC/IL blends. Before testing, the samples were subjected to drying cycles in a vacuum stove for 24 h at 50–60 °C, according to the thermal features of ILs, mainly considering their melting points. The ILs C9mimBF4, C10mimBF4, C9mimDMSIP, and C10mimDMSIP, which are liquid at RT, were left to dry at 30 °C for 4–5 h. […] Considering this, the 40–600 °C degradation temperature range was adopted for the subsequent TGA analyses. […] Furthermore, platinum pans and nitrogen as purge gas were used, and the temperature at which 5% weight loss occurred was defined as Tonset, aiming to avoid the decomposition differences due to pan and gas types, as well as the uncertainty from the manual determination of the Tonset tangent point, respectively. Many features can influence the thermal stability of ILs, mainly the coordinating nature of the anion. Indeed, the highly coordinating halide anions (Cl, Br) display a thermal stability lower than that of poor coordinating anions (PF6). The type of cation core influences the thermal stability of ILs, with a decreasing temperature resistance in the following order: pyrrolidinium, imidazolium, pyridinium, and non-cyclic tetra-alkyl ammonium. The increasing alkyl chain length of the imidazolium cation and branching of the alkyl substituents induce a reduction in thermal stability. Furthermore, a decrease in thermal stability is determined by the presence of alkoxylated side chains in methylimidazolium, piperidinium, and pyrrolidinium cations.
As the industrial production of end products usually involves processing methodologies during which undesirable degradation processes could affect materials’ performance, the thermal stability of neat PVC and PVC/IL film blends was analysed. As detailed for TGA analyses of pure ILs, the stability of the PVC/IL blends was determined at heating runs of 10 °C/min from 40 to 600 °C under a nitrogen atmosphere using a platinum pan. These things considered, the temperature at 5% weight loss was considered as Tonset.

Listeria monocytogenes = experiment: MIC/MBC by broth dilution, pure ILs; format: cell-based; details: 24 h
Source text: as §1, §2, §3, §4, §5, §6

Pseudomonas fluorescens = experiment: MIC/MBC by broth dilution, pure ILs; format: cell-based; details: 24 h, NI = no inhibition at IL maximum concentration used (1000 µM), read-out: MIC
Source text: as §1, §2
All the bacterial strains were individually grown for 24 h at 35 or 27 °C for P. fluorescens, with shaking. After the incubation period, the cells were collected by centrifugation and re-suspended in sterile NB to obtain a stock culture of 10^9 CFU/mL. […]
as §5, §6

[2] = NI = no inhibition at IL maximum concentration used (1000 µM), read-out: MIC

MIC (Escherichia coli; 10^6 CFU/mL) [µg/mL] | Td, maximum degradation temperature [1] [°C] | MIC (Listeria monocytogenes; 10^6 CFU/mL) [µg/mL] | Compound | MIC (Escherichia coli; [2]) [µM] | IC50 (HDF cells; n = 3) [µM] | IC50 HDF (HDF cells; n = 3, mean ± SD) [µg/mL] | IC50 MCF7 (MCF7 cancer cells; n = 3) [µg/mL] | IC50 (MCF7 cancer cells; n = 3, mean ± SD) [µM] | MIC (Escherichia coli; 10^6 CFU/mL, read-out: MIC) [µg/mL] | MIC (Listeria monocytogenes; 10^6 CFU/mL, read-out: MIC) [µg/mL] | MIC (Listeria monocytogenes; [2]) [µM] | MIC (Pseudomonas fluorescens) [µM] | IC50 (HDF cells; Homo sapiens, n = 3) [µM] | IC50 (HDF cells; Homo sapiens, n = 3, mean ± SD) [µg/mL] | IC50 (MCF7 cancer cells; Homo sapiens, n = 3) [µg/mL] | IC50 (MCF7 cancer cells; Homo sapiens, n = 3, mean ± SD) [µM]
482.59 | 389.7 |  | CCCCCCCCC[n+]1ccn(C)c1.COC(=O)c1cc(C(=O)OC)cc(S(=O)(=O)[O-])c1 [C9mimDMSIP] | 1000 | 10.3 | 4.96 ± 0.05 | > 24.13 | > 50 |  |  |  |  |  |  |  | 
> 636.88 | 412.2 | > 636.88 | CCCCCCCCCCCCCCCCCCCCn1cc[n+](C)c1.COC(=O)c1cc(C(=O)OC)cc(S(=O)(=O)[O-])c1 [C20mimDMSIP, 1-eicosyl-3-methylimidazolium 1,3-dimethyl-5-sulfoisophthalate] |  | 8.01 | 5.10 ± 0.02 | 4.71 | 7.39 |  |  |  |  |  |  |  | 

Compound | MIC (Escherichia coli; 10^6 CFU/mL) [µg/mL] | Td, maximum degradation temperature [1] [°C] | MIC (Listeria monocytogenes; 10^6 CFU/mL) [µg/mL] | MIC (Escherichia coli; [2]) [µM] | IC50 (HDF cells; n = 3) [µM] | IC50 HDF (HDF cells; n = 3, mean ± SD) [µg/mL] | IC50 MCF7 (MCF7 cancer cells; n = 3) [µg/mL] | IC50 (MCF7 cancer cells; n = 3, mean ± SD) [µM] | MIC (Escherichia coli; 10^6 CFU/mL, read-out: MIC) [µg/mL] | MIC (Listeria monocytogenes; 10^6 CFU/mL, read-out: MIC) [µg/mL] | MIC (Listeria monocytogenes; [2]) [µM] | MIC (Pseudomonas fluorescens) [µM] | IC50 (HDF cells; Homo sapiens, n = 3) [µM] | IC50 (HDF cells; Homo sapiens, n = 3, mean ± SD) [µg/mL] | IC50 (MCF7 cancer cells; Homo sapiens, n = 3) [µg/mL] | IC50 (MCF7 cancer cells; Homo sapiens, n = 3, mean ± SD) [µM]
CCCCCCCCCCCCCCCCCCCC[n+]1ccn(C)c1.F[B-](F)(F)F [C20mimBF4] |  | 427.9 |  | > 1000 |  |  |  |  | > 450 | > 450 | > 1000 | > 1000 | 5.99 | 2.7 ± 0.19 | 3.47 | 7.71
